According to ChEMBL document CHEMBL3046749, “Synthesis and antimicrobial activity of novel bis-azaphenothiazines” (2013):
Values after ≈ are worked out from the molar mass of the structure shown. Active and inactive are the calls of the source. The rule behind the calls is not given here.

Key:
Assay type in all cases: functional
Pseudomonas aeruginosa [1] = test: Antibacterial activity against Pseudomonas aeruginosa MTCC 424 after 16 hr by cup-plate method; details: MTCC 424, 16 h
Escherichia coli [2] = test: Antibacterial activity against Escherichia coli MTCC 443 after 16 hr by cup-plate method; details: MTCC 443, 16 h
[3] = tested on: Staphylococcus epidermidis; test: Antibacterial activity against Staphylococcus epidermidis MTCC 435 after 16 hr by cup-plate method; details: MTCC 435, 16 h
Bacillus subtilis [4] = test: Antibacterial activity against Bacillus subtilis MTCC 441 after 16 hr by cup-plate method; details: MTCC 441, 16 h
Staphylococcus aureus [5] = test: Antibacterial activity against Staphylococcus aureus MTCC 096 after 16 hr by cup-plate method; details: MTCC 096, 16 h
Candida albicans [6] = test: Antifungal activity against Candida albicans MTCC 227 at 100 ug/ml after 28 to 30 hr by cup-plate method; details: read-out: IZ
Aspergillus flavus [7] = test: Antifungal activity against Aspergillus flavus MTCC 277 at 100 ug/ml after 28 to 30 hr by cup-plate method; details: read-out: IZ
Aspergillus fumigatus [8] = test: Antifungal activity against Aspergillus fumigatus MTCC 343 at 100 ug/ml after 28 to 30 hr by cup-plate method; details: for zone of inhibition at 100 µg/mL: read-out: IZ
Aspergillus niger [9] = test: Antifungal activity against Aspergillus niger MTCC 282 at 100 ug/ml after 28 to 30 hr by cup-plate method; details: for zone of inhibition at 100 µg/mL: read-out: IZ
Klebsiella pneumoniae [10] = test: Antibacterial activity against Klebsiella pneumoniae MTCC 432 at 100 ug/ml after 16 to 18 hr by cup-plate method; details: read-out: IZ
Salmonella typhi = test: Antibacterial activity against Salmonella enterica subsp. enterica serovar Typhi MTCC 733 at 100 ug/ml after 16 to 18 hr by cup-plate method; details: read-out: IZ
Pseudomonas aeruginosa [11] = test: Antibacterial activity against Pseudomonas aeruginosa MTCC 424 at 100 ug/ml after 16 to 18 hr by cup-plate method; details: read-out: IZ
Escherichia coli [12] = test: Antibacterial activity against Escherichia coli MTCC 443 at 100 ug/ml after 16 to 18 hr by cup-plate method; details: read-out: IZ
[13] = tested on: Staphylococcus epidermidis; test: Antibacterial activity against Staphylococcus epidermidis MTCC 435 at 100 ug/ml after 16 to 18 hr by cup-plate method; details: read-out: IZ
Bacillus subtilis [14] = test: Antibacterial activity against Bacillus subtilis MTCC 441 at 100 ug/ml after 16 to 18 hr by cup-plate method; details: read-out: IZ
Staphylococcus aureus [15] = test: Antibacterial activity against Staphylococcus aureus MTCC 096 at 100 ug/ml after 16 to 18 hr by cup-plate method; details: read-out: IZ
Candida albicans [16] = test: Antifungal activity against Candida albicans MTCC 227 after 28 to 30 hr by cup-plate method
Aspergillus fumigatus [17] = test: Antifungal activity against Aspergillus fumigatus MTCC 343 after 28 to 30 hr by cup-plate method
Aspergillus flavus [18] = test: Antifungal activity against Aspergillus flavus MTCC 277 after 28 to 30 hr by cup-plate method
Aspergillus niger [19] = test: Antifungal activity against Aspergillus niger MTCC 282 after 28 to 30 hr by cup-plate method
Klebsiella pneumoniae [20] = test: Antibacterial activity against Klebsiella pneumoniae MTCC 432 after 16 hr by cup-plate method; details: MTCC 432, 16 h

SMILES | MIC (Pseudomonas aeruginosa [1]) | MIC (Escherichia coli [2]) | MIC [3] | MIC (Bacillus subtilis [4]) | MIC (Staphylococcus aureus [5]) | zone of inhibition at 100 µg/mL (Candida albicans [6]) | zone of inhibition at 100 µg/mL (Aspergillus flavus [7]) | zone of inhibition at 100 µg/mL (Aspergillus fumigatus [8]) | zone of inhibition at 100 µg/mL (Klebsiella pneumoniae [10]) | zone of inhibition at 100 µg/mL (Salmonella typhi) | zone of inhibition at 100 µg/mL (Pseudomonas aeruginosa [11]) | zone of inhibition at 100 µg/mL (Escherichia coli [12]) | zone of inhibition at 100 µg/mL [13] | zone of inhibition at 100 µg/mL (Bacillus subtilis [14]) | zone of inhibition at 100 µg/mL (Staphylococcus aureus [15]) | MIC (Candida albicans [16]) | MIC (Aspergillus fumigatus [17]) | MIC (Aspergillus flavus [18]) | MIC (Aspergillus niger [19]) | MIC (Klebsiella pneumoniae [20]) | also measured
Brc1ccc2c(c1)Sc1cccnc1N2C/C=C/CN1c2ccc(Br)cc2Sc2cccnc21 | > 50 µg/mL | 12.5 µg/mL (≈ 20.5 µM) | > 50 µg/mL | 25 µg/mL (≈ 41 µM) | 25 µg/mL (≈ 41 µM) | 10 mm | 11 mm | 12 mm | 11 mm | 11 mm | 10 mm | 12 mm | 11 mm | 11 mm | 12 mm | > 50 µg/mL | 12.5 µg/mL (≈ 20.5 µM) | > 50 µg/mL | > 50 µg/mL | 50 µg/mL (≈ 81.9 µM) | inhibition zone (IZ) (Aspergillus niger [9]): inactive
Brc1ccc2c(c1)Sc1cccnc1N2CCCCCCN1c2ccc(Br)cc2Sc2cccnc21 | 6.25 µg/mL (≈ 9.76 µM) | 6.25 µg/mL (≈ 9.76 µM) | 6.25 µg/mL (≈ 9.76 µM) | 12.5 µg/mL (≈ 19.5 µM) | 25 µg/mL (≈ 39 µM) | 11 mm | 12 mm | 11 mm | 12 mm | 11 mm | 13 mm | 12 mm | 14 mm | 13 mm | 12 mm | 25 µg/mL (≈ 39 µM) | 25 µg/mL (≈ 39 µM) | 12.5 µg/mL (≈ 19.5 µM) | > 50 µg/mL | 25 µg/mL (≈ 39 µM) | zone of inhibition at 100 µg/mL (Aspergillus niger [9]): 11 mm
CC(=O)Nc1ccccc1Sc1ncccc1[N+](=O)[O-] | 12.5 µg/mL (≈ 43.2 µM) | > 50 µg/mL | 25 µg/mL (≈ 86.4 µM) | 25 µg/mL (≈ 86.4 µM) | > 50 µg/mL | 12 mm | 12 mm | – | 11 mm | 12 mm | 12 mm | 10 mm | 11 mm | 12 mm | 11 mm | 12.5 µg/mL (≈ 43.2 µM) | > 50 µg/mL | 12.5 µg/mL (≈ 43.2 µM) | > 50 µg/mL | 50 µg/mL (≈ 173 µM) | inhibition zone (IZ) (Aspergillus fumigatus [8]): inactive; inhibition zone (IZ) (Aspergillus niger [9]): inactive
CC(=O)Nc1ccc(Cl)cc1Sc1ncccc1[N+](=O)[O-] | 6.25 µg/mL (≈ 19.3 µM) | 12.5 µg/mL (≈ 38.6 µM) | 6.25 µg/mL (≈ 19.3 µM) | 25 µg/mL (≈ 77.2 µM) | 25 µg/mL (≈ 77.2 µM) | 14 mm | 12 mm | 12 mm | 13 mm | 12 mm | 14 mm | 12 mm | 13 mm | 12 mm | 12 mm | 6.25 µg/mL (≈ 19.3 µM) | 12.5 µg/mL (≈ 38.6 µM) | 25 µg/mL (≈ 77.2 µM) | 6.25 µg/mL (≈ 19.3 µM) | 6.25 µg/mL (≈ 19.3 µM) | zone of inhibition at 100 µg/mL (Aspergillus niger [9]): 14 mm
Fc1ccc2c(c1)Sc1cccnc1N2CCCCCCN1c2ccc(F)cc2Sc2cccnc21 | 6.25 µg/mL (≈ 12.1 µM) | 12.5 µg/mL (≈ 24.1 µM) | 12.5 µg/mL (≈ 24.1 µM) | 25 µg/mL (≈ 48.2 µM) | 25 µg/mL (≈ 48.2 µM) | 13 mm | 12 mm | 11 mm | 11 mm | 12 mm | 13 mm | 12 mm | 12 mm | 12 mm | 12 mm | 6.25 µg/mL (≈ 12.1 µM) | 25 µg/mL (≈ 48.2 µM) | 12.5 µg/mL (≈ 24.1 µM) | 50 µg/mL (≈ 96.4 µM) | 50 µg/mL (≈ 96.4 µM) | zone of inhibition at 100 µg/mL (Aspergillus niger [9]): 10 mm
C(=C\CN1c2ccccc2Sc2cccnc21)/CN1c2ccccc2Sc2cccnc21 | 12.5 µg/mL (≈ 27.6 µM) | 50 µg/mL (≈ 110 µM) | > 50 µg/mL | > 50 µg/mL | 12.5 µg/mL (≈ 27.6 µM) | 12 mm | 12 mm | 13 mm | 11 mm | 11 mm | 12 mm | 11 mm | 10 mm | 10 mm | 12 mm | 12.5 µg/mL (≈ 27.6 µM) | 6.25 µg/mL (≈ 13.8 µM) | 12.5 µg/mL (≈ 27.6 µM) | 12.5 µg/mL (≈ 27.6 µM) | 50 µg/mL (≈ 110 µM) | zone of inhibition at 100 µg/mL (Aspergillus niger [9]): 12 mm
Fc1ccc2c(c1)Sc1cccnc1N2CCCCN1c2ccc(F)cc2Sc2cccnc21 | > 50 µg/mL | 25 µg/mL (≈ 51 µM) | 12.5 µg/mL (≈ 25.5 µM) | 12.5 µg/mL (≈ 25.5 µM) | 25 µg/mL (≈ 51 µM) | 10 mm | 12 mm | 10 mm | 11 mm | 12 mm | 10 mm | 11 mm | 12 mm | 12 mm | 11 mm | > 50 µg/mL | > 50 µg/mL | 25 µg/mL (≈ 51 µM) | 50 µg/mL (≈ 102 µM) | 50 µg/mL (≈ 102 µM) | zone of inhibition at 100 µg/mL (Aspergillus niger [9]): 11 mm
Clc1ccc(COC(Cn2ccnc2)c2ccc(Cl)cc2Cl)c(Cl)c1 (stereo not given) [MICONAZOLE] | – | – | – | – | – | 19 mm | 17 mm | 15 mm | – | – | – | – | – | – | – | 6.25 µg/mL (≈ 15 µM) | 6.25 µg/mL (≈ 15 µM) | 12.5 µg/mL (≈ 30 µM) | 6.25 µg/mL (≈ 15 µM) | – | zone of inhibition at 100 µg/mL (Aspergillus niger [9]): 18 mm
